In US4031226A, “N-[(1-piperidinyl)alkyl]arylcarboxamide derivatives” (Janssen Pharmaceutica N.V., priority 1976, dated 1977):
Where two headings read alike, the source gives them in different places.

Tests used:
[1] = system: apomorphine-induced vomiting; test: block of apomorphine-induced vomiting in dogs (antiemetic activity); format: in vivo, beagle dogs; conditions: Canis lupus familiaris, sc, read-out: ED50 (dose which protects 50% of the animals from emesis)
Method: The method used is described previously by P. A. J. Janssen and C. J. E. Niemegeers in: Arzneim. -Forsch. (Drug Res), 9, 765-767 (1959).
The compounds listed below were administered subcutaneously to beagle dogs at different doses and the animals were challenged 1 hour thereafter with a standard dose of 0.31 mg/kg (subcutaneous) of apomorphine.
The tables below give the ED50 values of a number of the compounds under consideration. As used herein, the ED50 value represents the dose which protects 50% of the animals from emesis.

[2] = system: apomorphine-induced phenomena: agitation and stereotypic chewing; test: The apomorphine test in rats (anti-apomorphine activity); format: in vivo, male Wistar rats; conditions: Rattus norvegicus, sc, read-out: LED (lowest effective dose), anti-apomorphine activity in rats
Method: The compounds of formula (I) are potent psychotropic agents and as such they can be used in the treatment of metal disorders such as, for example, personality and psycho-affective disorders and schizophrenia. The psychotropic activity of the subject compounds (I) is strongly evidenced by the experimental data obtained in the apomorphine test in rats, a test which is indicative for central nervous system depressant activity. The test was carried out following the procedure described hereafter and the experimental data which were obtained are summarized in table V wherein the compound numbers refer to the corresponding structures in the Tables I to IV.
The apomorphine test in rats
The experimental animals used in this test were adult male Wistar rats (weight 240 ± 10 g.). After an overnight fast, the animals were treated subcutaneously (1ml/100 g) with an aqueous solution of the compound under investigation and put into isolated observation cages.

[3] = beagle dogs, challenged 1 hour thereafter with 0.31 mg/kg s.c. apomorphine
[4] = 30 min before 1.25 mg/kg i.v. apomorphine hydrochloride, observed over 1 hour, Fisher exact probability test

Compound	ED50 [1, 3] [mg/kg]	minimal effective dose [2] [mg/kg]	ED50 ([1]; 1 h) [mg/kg]	minimal effective dose [2, 4] [mg/kg]
Nc1ccccc1C(=O)NCCN1CCC(n2c(=O)[nH]c3ccccc32)CC1 [Compound 36, 2-amino-N-{2-[4-(2,3-dihydro-2-oxo-1H-benzimidazol-1-yl)-1-piperidinyl]ethyl}benzamide hemihydrate]	0.1	–	–	–
Cl.Nc1cc(F)ccc1C(=O)NCCN1CCC2(CC1)C(=O)NCN2c1ccccc1.O [Compound 7, 2-amino-4-fluoro-N-[2-(4-oxo-1-phenyl-1,3,8-triazaspiro[4,5]dec-8-yl)ethyl]benzamide hydrochloride hydrate]	–	2.5	0.004	–
O=C(NCCN1CCC(n2c(=O)[nH]c3cc(Cl)ccc32)CC1)c1ccc(F)cc1[N+](=O)[O-]	0.25	–	–	–
O=C(NCCN1CCC2(CC1)C(=O)NCN2c1ccc(F)cc1)c1ccc(F)cc1[N+](=O)[O-]	–	–	0.03	–
O=C(NCCN1CCC(n2c(=O)[nH]c3cc(Cl)ccc32)CC1)c1ccc(F)cc1 [Compound 31]	–	5	0.08	–
O=C(NCCN1CCC(n2c(=O)[nH]c3ccccc32)CC1)c1ccc(F)cc1	0.12	–	–	–
Nc1cc(F)ccc1C(=O)NCCN1CCC(n2c(=O)[nH]c3ccccc32)CC1 [Compound 33]	0.03	–	–	5
CC(=O)Nc1cc(F)ccc1C(=O)NCCN1CCC(n2c(=O)[nH]c3ccccc32)CC1 [Compound 37]	0.04	–	–	10
O=C(NCCN1CCC2(CC1)C(=O)NCN2c1ccc(F)cc1)c1ccccc1O [Compound 11]	–	10	0.2	–
O=C(NCCN1CCC2(CC1)C(=O)NCN2c1ccc(F)cc1)c1ccc(F)cc1 [Compound 8]	–	10	0.015	–
COc1ccc(C(=O)NCCN2CCC3(CC2)C(=O)NCN3c2ccccc2)cc1	–	–	0.5	–
O=C(NCCN1CCC2(CC1)C(=O)NCN2c1ccccc1)c1ccc(F)cc1Cl [Compound 21]	–	2.5	0.015	–
N#CCCn1c(=O)n(C2CCN(CCNC(=O)c3ccc(F)cc3)CC2)c2ccccc21	0.5	–	–	–
O=C(NCCN1CCC2(CC1)C(=O)NCN2c1ccc(F)cc1)c1ccccc1Cl [Compound 14]	–	0.63	0.004	–
O=C(NCCN1CCC2(CC1)C(=O)NCN2c1ccccc1)c1ccc(F)cc1 [Compound 2]	–	5	0.06	–
O=C(NCCN1CCC2(CC1)C(=O)NCN2c1ccccc1)c1ccccc1Br [Compound 4]	–	2.5	0.25	–
O=C(NCCN1CCC2(CC1)C(=O)NCN2c1ccccc1)c1cccc(Cl)c1	–	–	0.63	–
Cc1ccccc1C(=O)NCCN1CCC(n2c(=O)[nH]c3ccccc32)CC1	0.25	–	–	–
O=C(NCCN1CC=C(n2c(=O)[nH]c3ccccc32)CC1)c1ccc(F)cc1	0.25	–	–	–
O=C(NCCN1CCC2(CC1)C(=O)NCN2c1ccc(F)cc1)c1ccccc1[N+](=O)[O-]	–	–	0.12	–

Compound	ED50 [1, 3] [mg/kg]	minimal effective dose [2] [mg/kg]	ED50 ([1]; 1 h) [mg/kg]	minimal effective dose [2, 4] [mg/kg]
O=C(NCCN1CCC(n2c(=O)[nH]c3ccccc32)CC1)c1ccccc1Cl [Compound 34]	1.5	–	–	5
Nc1ccccc1C(=O)NCCN1CCC2(CC1)C(=O)NCN2c1ccc(F)cc1 [Compound 23]	–	2.5	0.008	–
O=C(NCCN1CCC(n2c(=O)[nH]c3ccccc32)CC1)c1ccc(F)cc1[N+](=O)[O-]	0.5	–	–	–
O=C(NCCN1CCC2(CC1)C(=O)NCN2c1ccc(F)cc1)c1ccc(F)cc1Cl [Compound 9]	–	0.63	0.002	–
Cc1ccccc1C(=O)NCCN1CCC2(CC1)C(=O)NCN2c1ccccc1 [Compound 6]	–	2.5	0.1	–
O=C(NCCN1CCC2(CC1)C(=O)NCN2c1ccccc1)c1ccccc1Cl [Compound 3]	–	0.31	0.06	–
O=C(NCCN1CCC(n2c(=O)[nH]c3cc(Cl)ccc32)CC1)c1ccc(F)cc1Cl [Compound 32]	0.03	–	–	1.25
Cn1cccc1C(=O)NCCN1CCC2(CC1)C(=O)NCN2c1ccc(F)cc1 [Compound 24]	–	10	0.25	–
O=C(NCCN1CCC(n2c(=O)[nH]c3ccccc32)CC1)c1ccccc1	0.2	–	–	–
CC(=O)Nc1cc(F)ccc1C(=O)NCCN1CCC(n2c(=O)[nH]c3cc(Cl)ccc32)CC1 [Compound 38]	0.06	–	–	10
O=C(NCCN1CCC(n2c(=O)[nH]c3ccccc32)CC1)c1ccccc1F [Compound 27]	0.5	–	–	5
Cl.Nc1cc(F)ccc1C(=O)NCCN1CCC2(CC1)C(=O)NCN2c1ccc(F)cc1.O [Compound 20, 2-amino-4-fluoro-N-{2-[1-(4-fluorophenyl)-4-oxo-1,3,8-triazaspiro[4,5]dec-8-yl]ethyl}benzamide hydrochloride hydrate]	–	5	0.002	–
O=C(NCCN1CCC2(CC1)C(=O)NCN2c1ccccc1)c1ccc(F)cc1[N+](=O)[O-]	–	–	0.25	–
CC(=O)Nc1cc(F)ccc1C(=O)NCCN1CCC2(CC1)C(=O)NCN2c1ccc(F)cc1 [Compound 25]	–	5	0.07	–
O=C(NCCN1CCC2(CC1)C(=O)NCN2c1ccccc1)c1ccc(Cl)cc1	–	–	0.8	–
O=C(NCCN1CCC2(CC1)C(=O)NCN2c1ccccc1)c1ccccc1	–	–	0.1	–
Nc1ccccc1C(=O)NCCN1CCC(n2c(=O)[nH]c3cc(Cl)ccc32)CC1	0.45	–	–	–
O=C(NCCN1CCC2(CC1)C(=O)NCN2c1ccccc1)c1ccccc1F [Compound 16]	–	1.25	0.25	–
Nc1cc(F)ccc1C(=O)NCCN1CCC(O)(c2ccc(Cl)cc2)CC1 [Compound 40]	–	5	0.7	–
O=C(NCCN1CCC2(CC1)C(=O)NCN2c1ccccc1)c1cccs1	–	–	0.45	–
